Measurements: patent US20080207578A1, “METHOD OF INDUCING APOPTOSIS IN CANCER TREATMENT BY USING CUCURBITACINS” (priority 2006, published 2008)

Columns and labels:
[1] = test system: 59 human cancer cell lines; assay: Sulforhodamine B (SRB) growth inhibition assay, 59-NCI Cancer Cell Line Panel; format: cell-based; conditions: 0.488 to 4000 nM, 48 hours
Description: (§1) Human cancer cell lines from the 59-NCl Cancer Cell Line Panel including leukemia, melanoma and cancers of breast, brain, colon, lung, ovary, prostate and kidney, were purchased from the National Institute of Cancer (USA). The growth inhibition (GI50) of these cell lines treated with cucurbitacin B and cucurbitacin D in various concentrations was investigated.
(§2) 59 human cancer cell lines were maintained in RPMI 1640 (Invitrogen Life Technologies, Calif., USA) supplemented with 5% Fetal Bovine Serum, 2 mM L-glutamine and 1% Penicillin/Streptomycin (Invitrogen Life Technologies) at 37° C. with 5% CO2. All chemicals were purchased from Sigma (St. Louis, Mo., USA) unless specified otherwise.
(§3) Sulforhodamine B (SRB) assay was applied to determine the cytostatic effect of cucurbitacin B and cucurbitacin D. SRB is a dye which binds to cellular proteins and will be dissolved in base. The biomass of total protein can be measured at 520 nm using a plate reader.
(§4) Cells were inoculated into 96-well microtiter plates including “Time zero” (Tz) plates in 100 μl at cell concentrations from 5000 to 40,000 cells per well according to NCI guideline. The cells were incubated at 37° C. with 5% CO2 for 24 hours. […] Bound SRB was solubilized with 100-200 ul per well of 10 mM trizma base and absorbance was measured at a wavelength of 520 nm. The percentage of growth inhibition was calculated as follows: […]

[2] = test system: PARP in HL 60 human leukemia cells; assay: Western blot of PARP cleavage in HL60 cells; format: cell-based
Experimental: (§5) Control cells, as well as cells treated with cucurbitacin B or cucurbitacin D, were harvested and collected by centrifugation. Whole cell extracts were then prepared by lysing the cells using 4% sodium dodecyl sulfate (SDS) gel sample buffer. Cell extracts were boiled for 10 min and chilled on ice, subjected to 12% SDS-polyacrylamide gel electrophoresis, and transferred to a PVDF membrane. Each membrane was cut into to two pieces with one piece incubated at 4^˜ overnight with antibodies against cell cycle signaling proteins, such as ERK, phosphorlated-ERK, p38, phosphorlated-p38, Cyclin E, Retinoblastoma, phosphalated-Retinoblastoma and c-myc, and apoptotic protein (PARP). β-actin was used as a control for protein loading. All antibodies were obtained from Cell signaling Technologies (USA). Then membranes were incubated at 37^˜ for 1 h with secondary antibody conjugated with peroxidase, and the signal was detected using chemiluminescence detection reagent. The relative protein level was calculated as the ratio of the optical density of the protein of interest to that of β-actin.

[3] = test system: human cancer cell lines (18 selected from the 59-NCI panel); assay: Cell cycle analysis by PI flow cytometry, 18 selected cell lines; format: cell-based; conditions: GI50, 1/2 GI50 and 1/4 GI50 of particular cell line, 48 hours
[4] = test system: melanoma cell lines; assay: SRB growth inhibition assay, melanoma group; format: cell-based, human; conditions: most sensitive type to cucurbitacin D, 48 hours
Description: as §1, §2, §3, §4

[5] = test system: SF-295 CNS cell line; assay: Cell cycle analysis by PI flow cytometry, SF-295; format: cell-based, human; conditions: SF-295, 48 hours
[6] = test system: human cancer cell lines (18 selected from the 59-NCI panel); assay: Annexin V-FITC/propidium iodine flow cytometric apoptosis assay, 18 selected cell lines; format: cell-based; conditions: 48 hours; for cell lines in which apoptosis was induced: GI50, 1/2 GI50 and 1/4 GI50 of particular cell line; for dose dependence of apoptosis induction (in words): three concentrations
Experimental: Human cancer cell lines from the 59-NCI Cancer Cell Line Panel including leukemia, melanoma and cancers of breast, brain, colon, lung, ovary, prostate and kidney were purchased from the National Institute of Cancer. […] They were treated with cucurbitacin B and cucurbitacin D at three different concentrations to elucidate their ability to induce any changes in cell cycle.
Cancer cell lines were maintained in RPMI 1640 supplemented with 5% Fetal Bovine Serum, 2 mM L-glutamine and 1% Penicillin/Streptomycin at 37° C. with 5% CO2. All chemicals were purchased from Sigma unless specified otherwise.
Cells were inoculated into tissue culture flask at cell concentrations from 50000 to 400,000 cells/ml according to the NCl guideline. The cells were incubated at 37° C. with 5% CO2 for 24 hours. Cucurbitacin B and cucurbitacin D were added to the cells of final concentrations ranging from 6 to 350 nM (GI50, ½ GI50 and ¼ GI50 of particular cell line) for 48 hours at 37° C. with 5% CO2. Cells ([…]) were then harvested and stained with 5 μl Annexin V-FITC and 10 μl propidium iodine (Becton Dickinson, Calif., USA) for 15 minutes at room temperature. Ten thousands events were collected by the FACScaliber and the percentage of different cell populations were analyzed by the CellQuest™ software (Becton Dickinson).

[7] = test system: phosphorylated-ERK, cyclin E, phosphorylated-Rb, c-myc in HL60 cells; assay: Western blot of MAPK / cell cycle signaling proteins in HL60 cells; format: cell-based, human
Experimental: as §5

[8] = test system: prostate cancer cell lines; assay: SRB growth inhibition assay, prostate cancer group; format: cell-based, human; conditions: most sensitive type to cucurbitacin B, 48 hours
Description: as §1, §2, §3, §4

[9] = test system: HL60 (TB) leukemia cell line; assay: Cell cycle analysis by PI flow cytometry, HL60 (TB); format: cell-based, human; conditions: 48 hours

Row | SMILES | growth inhibition of 59 cancer cell lines (in words) [1] | PARP (apoptosis marker) in western blot (in words) [2] | cell lines arrested in G2/M [3] | GI50 [4] [nM] | effect on cell cycle (in words) [5] | cell lines in which apoptosis was induced [6] | dose dependence of apoptosis induction (in words) [6] | ERK (in words) [7] | c-myc (in words) [7] | cyclin E (in words) [7] | retinoblastoma phosphorylation (in words) [7] | GI50 [8] [nM] | effect on cell cycle (in words) [9]
1 | CC(C)(O)/C=C/C(=O)[C@](C)(O)[C@H]1[C@H](O)C[C@@]2(C)[C@@H]3CC=C4[C@@H](C[C@H](O)C(=O)C4(C)C)[C@]3(C)C(=O)C[C@]12C [cucurbitacin D] | inhibited the growth of 59 cancer cell lines dose-dependently | cleavage of PARP | 9 out of 18 | 60 | G2/M arrest and endoreduplication | 11 out of 18 | induced apoptosis in a dose-dependent manner | ERK activation | down-regulation of c-myc | cyclin E down-regulation | inhibition of retinoblastoma's phosphorylation |  | 
2 | CC(=O)OC(C)(C)/C=C/C(=O)[C@](C)(O)[C@H]1[C@H](O)C[C@@]2(C)[C@@H]3CC=C4[C@H](C[C@H](O)C(=O)C4(C)C)[C@]3(C)C(=O)C[C@]12C [cucurbitacin B] | inhibited the growth of 59 cancer cell lines dose-dependently | cleavage of PARP | 6 out of 18 |  |  | 9 out of 18 | induced apoptosis in a dose-dependent manner | ERK activation | down-regulation of c-myc | cyclin E down-regulation | inhibition of retinoblastoma's phosphorylation | 17 | G2/M arrest and endoreduplication
